In patent US10647694B2, “Diphenylaminopyrimidine and triazine compound, and pharmaceutical composition and use thereof” (ARROMAX PHARMATECH CO., LTD., priority 2016, dated 2020):

Legend:
[1] = tested on: Ba/F3 cells; experiment: Tumor cell growth inhibition test (CCK8 detection), Ba/F3; format: cell-based, mouse
Description: (§1) Growth Inhibition Test of the Series of Compounds on Various Tumor Cells (CCK8 Detection)
(1) Ba/F3 mouse IL-3 dependent pro-B lymphocyte cell line, RPMI 1640+10% FBS+10 ng/ml Interleukin-3+1% Sodium Pyruvate;
(§2) (1) Cell culture • a) Cells in logarithmic growth phase were collected, counted, and re-suspended in a complete medium. • b) The cell concentration was adjusted to an appropriate concentration, and inoculated into a 96-well plate in an amount of 100 μl of cell suspension per well. • c) The cells were incubated for 24 hrs in an incubator at 37° C. with 100% relative humidity and 5% CO2.
(§3) (2) Test of relative inhibition rate • 1) Cells in logarithmic growth phase were collected, counted, and re-suspended in a complete medium. The cell concentration was adjusted to an appropriate concentration (determined according to the optimal test result of cell density), and inoculated into a 96-well plate in an amount of 100 μl of cell suspension per well. The cells were incubated for 24 hrs in an incubator at 37° C. with 100% relative humidity and 5% CO2. • 2) The compound to be tested was diluted with the medium to the corresponding action concentration, and […] were added in an amount of 25 µl/well.
(§4) The IC50 curve was fitted using the software Graphpad Prism 5 and using the calculation formula log(inhibitor) vs response and the IC50 value was calculated.

[2] = tested on: Karpas 299 cells; experiment: Tumor cell growth inhibition test (CCK8 detection), Karpas 299; format: cell-based, human
Description: as §1
(2) Karpas 299 human T lymphoma cell line, RPMI 1640+10% FBS+1% Sodium Pyruvate;
as §2, §3, §4

[3] = tested on: NCI-H3122 cells; experiment: Tumor cell growth inhibition test (CCK8 detection), NCI-H3122; format: cell-based, human
Description: as §1
(4) NCI-H3122 human lung cancer cell line, RPMI 1640+10% FBS+1% Sodium Pyruvate;
as §2, §3, §4

[4] = tested on: NCI-H2228 cells; experiment: Tumor cell growth inhibition test (CCK8 detection), NCI-H2228; format: cell-based, human
Description: as §1
(3) NCI-H2228 human non-small cell lung cancer cell line, RPMI 1640+10% FBS+1% Sodium Pyruvate;
as §2, §3, §4

[5] = molecular target: ALK enzyme (Homo sapiens, UniProt Q9UM73); experiment: In-vitro ALK kinase inhibitory activity (HTRF kinEASE TK kit); format: biochemical; conditions: inhibitory activity for ALK enzyme, read-out: IC50 range
Description: Anaplastic Lymphoma Kinase (ALK) Inhibitory Activity The in-vitro kinase assay was performed using the HTRF kinEASE TK kit available from Cisbio. The operation steps are indicated in the instructions of the kit. This method was used to detect the inhibitory effect of the compound to be tested on the activity of ALK enzymes in vitro, including wild-type ALK (Cat.PV3867, Invitrogen), ALK L1196M (Cat. PV6168, Life technologies), and ALK F1174L (Cat. PV6160, Life technologies). The specific operation steps were as follows. […] In addition to the control wells, 4 μL of the diluted compound solution to be tested was added to the reaction wells, and 4 μL of the 2.5% DMSO solution corresponding to the ALK enzyme previously formulated was added to the control wells. (2) 2 μL of a TK-biotin substrate solution previously formulated in a substrate concentration corresponding to the ALK enzyme was added to all reaction wells. (3) 2 μL of a previously prepared enzyme solution of corresponding concentration was added to all the reaction wells except the negative wells, and 2 μL of the 1× kinase buffer corresponding to the enzyme was added to the negative wells to make up the volume. The plate was sealed with a membrane, and incubated for 10 min at room temperature after mixing uniformly, such that the compounds were bond to the enzyme fully. (4) 2 μL of an ATP solution in a concentration corresponding to the ALK enzyme was added to all the reaction wells to initiate the kinase reaction, where the enzyme reaction time by ALK was 60 minutes. (5) An ALK test solution was prepared 5 minutes before the end of the kinase reaction. Streptavidin-XL665 and TK antibody europium cryptate (1:100) solutions for assay having a concentration corresponding to the enzyme were prepared using the detection buffer in the kit. (6) After the completion of the kinase reaction, 5 μl of diluted Streptavidin-XL665 was added to all the reaction wells respectively, and mixed uniformly, and then the diluted TK antibody europium cryptate solution for assay was added immediately. (7) The plate was sealed, mixed uniformly and allowed to react at room temperature for 1 h. The fluorescence signal (excitation at 320 nm, and emission at 665 nm and 615 nm) was detected using the ENVISION instrument (Perkinelmer). The inhibition rate for each well was calculated from the values of the fully active wells and the background signal wells. The values of replicated wells were averaged, and the half-maximal inhibitory activity (IC50) of each compound to be tested was fitted with a professional drawing analysis software PRISM 5.0.

[6] = tested on: NCI-H2228 nude mice xenografts; experiment: In-vivo pharmacodynamic evaluation, NCI-H2228 subcutaneous xenograft; conditions: 14 days, day 21
Description: In-Vivo Pharmacodynamic Evaluation
SCID Beige mice, female, 5-6 weeks old, weighed 18+2 g, purchased from Beijing HFK Bioscience Co., Ltd., bred in an SPF level environment.
NCI-H2228 cells were cultured in PRMI-1640 containing 10% fetal bovine serum (FBS) and 1% sodium pyruvate. The cells were cultured in an incubator at 37° C. with 5% CO2.
Establishment of subcutaneous tumor transplantation model in nude mice by cell inoculation: Tumor cells in logarithmic growth phase were collected, counted and re-suspended in PRMI-1640 basal medium. Matrigel was added at a ratio of 1:1, and the concentration of the cell suspension was adjusted to 6×10^7/ml. Tumor cells were subcutaneously inoculated to the right back of nude mice in an amount of 6×10^6/0.1 mL/mouse using a 1 mL syringe (with a […]).
When the tumor volume reached about 200 mm^3, the animals were randomly grouped according to randomized block method, so that the difference in tumor volume of each group was within 10% of the mean. There were 5 groups in total, each having 8 animals. The day of grouping was recorded as Day 0, and the animals were administered immediately after grouping. Compound I-3 of the present invention and Ceritinib were orally administered once a day for consecutive 14 days, and then observed for 7 days. The weight and tumor size of the animals were measured twice a week during the experiment. The clinical symptoms were observed and recorded daily. After the animals were weighed for the last time on Day 21, they were sacrificed by euthanization with CO2. The tumors were taken, weighed and photographed, and the average tumor size was calculated, to investigate the growth inhibitory effect of the test substance Compound I-3 on human lung cancer NCI-H2228 nude mice xenografts under the experimental conditions.
When the tumor in the tumor-bearing mice grew to a measurable size, the mice were randomly divided into 5 groups according to the principle of equal mean tumor volume using SPSS 17.0 software. Compound I-3 was administered by intragastric administration at a dosage of 30, 10, and 3 mg/kg per day. The positive control ceritinib was administered by intragastric administration at a dose of 10 mg/kg per day in a volume of 0.1 ml/10 g. These agents were administered once a day for consecutive 14 days. The animals in the negative control group were given an equal amount of solvent (1% DMSO in physiological saline). During the administration and recovery periods, the body weight and tumor size of the mice were measured 2-3 times per week. The tumor volume and relative tumor volume were calculated based on the measured data. The tumor volume (TV) was calculated by a formula below: TV=1/2×a×b^2, where a and b represent the major and minor diameters of the tumor, respectively. According to the measurement results, the relative tumor volume (RTV) was calculated, by a formula below: RTV=Vt/V0, where V0 is the tumor volume at the start of the experiment, and Vt is the tumor volume measured each time.

Sequence of ALK enzyme (Q9UM73 19-1620 limits assumed): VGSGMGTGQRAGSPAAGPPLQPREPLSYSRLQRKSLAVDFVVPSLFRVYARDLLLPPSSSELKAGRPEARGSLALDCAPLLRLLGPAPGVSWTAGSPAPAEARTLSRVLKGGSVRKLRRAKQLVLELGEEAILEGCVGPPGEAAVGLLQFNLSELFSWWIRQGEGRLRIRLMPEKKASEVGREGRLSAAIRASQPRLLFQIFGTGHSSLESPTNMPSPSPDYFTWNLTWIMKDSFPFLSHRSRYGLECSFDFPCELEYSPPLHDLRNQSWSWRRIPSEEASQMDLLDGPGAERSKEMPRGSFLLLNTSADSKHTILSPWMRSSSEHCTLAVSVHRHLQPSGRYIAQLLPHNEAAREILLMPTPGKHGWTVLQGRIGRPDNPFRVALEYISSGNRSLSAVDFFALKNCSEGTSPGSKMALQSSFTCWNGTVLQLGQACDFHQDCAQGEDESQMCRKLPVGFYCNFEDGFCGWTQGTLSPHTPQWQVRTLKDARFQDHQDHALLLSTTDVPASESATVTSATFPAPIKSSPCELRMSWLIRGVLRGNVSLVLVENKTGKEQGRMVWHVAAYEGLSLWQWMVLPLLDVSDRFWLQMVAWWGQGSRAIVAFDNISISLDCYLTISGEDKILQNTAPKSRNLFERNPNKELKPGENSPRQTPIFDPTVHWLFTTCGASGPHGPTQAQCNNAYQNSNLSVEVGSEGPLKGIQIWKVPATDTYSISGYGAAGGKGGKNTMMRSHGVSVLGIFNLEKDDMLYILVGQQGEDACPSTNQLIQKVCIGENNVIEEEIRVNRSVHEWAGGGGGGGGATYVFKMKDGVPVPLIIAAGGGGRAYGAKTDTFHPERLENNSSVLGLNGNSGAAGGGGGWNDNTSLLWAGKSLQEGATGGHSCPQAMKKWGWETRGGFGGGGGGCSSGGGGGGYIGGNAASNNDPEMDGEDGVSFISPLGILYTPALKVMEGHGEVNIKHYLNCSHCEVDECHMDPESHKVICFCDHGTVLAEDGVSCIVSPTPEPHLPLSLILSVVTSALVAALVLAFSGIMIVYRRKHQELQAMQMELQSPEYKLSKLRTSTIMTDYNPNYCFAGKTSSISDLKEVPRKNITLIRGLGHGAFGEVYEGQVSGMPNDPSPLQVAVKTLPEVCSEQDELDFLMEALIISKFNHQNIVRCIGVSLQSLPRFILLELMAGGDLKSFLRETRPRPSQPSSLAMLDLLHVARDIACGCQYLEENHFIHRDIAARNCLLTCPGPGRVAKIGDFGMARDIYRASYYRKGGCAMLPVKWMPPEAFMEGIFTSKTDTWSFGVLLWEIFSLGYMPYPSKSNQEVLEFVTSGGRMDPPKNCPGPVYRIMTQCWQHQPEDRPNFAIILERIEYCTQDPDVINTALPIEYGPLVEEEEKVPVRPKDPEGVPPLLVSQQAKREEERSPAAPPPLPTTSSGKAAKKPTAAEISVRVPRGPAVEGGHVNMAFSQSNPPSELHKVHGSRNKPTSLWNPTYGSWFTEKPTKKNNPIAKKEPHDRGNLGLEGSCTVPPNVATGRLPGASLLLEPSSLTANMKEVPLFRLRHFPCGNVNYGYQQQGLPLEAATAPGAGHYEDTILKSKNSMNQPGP

## [2H]C([2H])([2H])C([2H])(Oc1cc(C2CCNCC2)c(C)cc1Nc1ncc(Cl)c(Nc2ccccc2S(=O)(=O)C(C)C)n1)C([2H])([2H])[2H]
[1]; Mus musculus, BaF3, 72 hrs
  IC50: 2890 nM
[2]; Homo sapiens, KARPAS-299, 72 hrs
  IC50: 45.7 nM
[3]; Homo sapiens, NCI-H3122, 72 hrs
  IC50: 28.4 nM
[4]; Homo sapiens, NCI-H2228, 72 hrs
  IC50: 111 nM

## 5-chloro-N2-(2-D6-ethoxy-5-methyl-4-(piperidin-4-yl)phenyl)-N4-(2-(isopr opylsulfonyl)phenyl))pyrimidin-2,4-diamine [Compound I-14]
[1]; 72 hrs
  IC50: 1990 nM
[5]
  IC50: 1 to 10 nM
[2]; 72 hrs
  IC50: 5.23 nM
[3]; 72 hrs
  IC50: 6.09 nM
[4]; 72 hrs
  IC50: 45.5 nM

## [2H]C([2H])([2H])Oc1cc(C2CCNCC2)c(C)cc1Nc1ncc(Cl)c(Nc2ccccc2S(=O)(=O)C(C)C)n1 [Compound I-3, 5-chloro-N4-(2-(isopropylsulfonyl)phenyl)-N2-(2-D3-methoxy-5-methyl-4-(piperidin-4-yl)phenyl)pyrimidin-2,4-diamine]
[6]; 3 mg/kg qd intragastric
  IR (%): 12.86%
  RTV d21: 3.12 ± 0.23
  T/C (%): 77.45%
[6]; 10 mg/kg qd intragastric
  IR (%): 53.39%
  RTV d21: 1.70 ± 0.20
  T/C (%): 45.33%
[6]; 30 mg/kg qd intragastric
  IR (%): 77.14%
  RTV d21: 0.79 ± 0.17
  T/C (%): 21.07%

## COc1cc(C2CCNCC2)c(C)cc1Nc1nc(Nc2ccccc2S(=O)(=O)C(C)C)c2[nH]ccc2n1 [Compound I-31, N4-(2-(isopropylsulfonyl)phenyl)-N2-(2-D3-methoxy-5-methyl-4-(piperidin-4-yl)phenyl)-5H-pyrrolo[3,2-d]pyrimidin-2,4-diamine]
[5]
  IC50: 10 to 100 nM

## COc1cc(C2CCNCC2)c(C)cc1Nc1nc(Nc2ccccc2S(=O)(=O)C(C)C)c2ccsc2n1 [Compound I-32, N4-(2-(isopropylsulfonyl)phenyl)-N2-(2-D3-methoxy-5-methyl-4-(piperidin-4-yl)phenyl)thieno[2,3-d]pyrimidin-2,4-diamine]
[5]
  IC50: 10 to 100 nM

## COc1cc(N2CCC(N3CCSCC3)CC2)ccc1Nc1ncc(Cl)c(Nc2ccccc2S(=O)(=O)C(C)C)n1 [Compound I-33, 5-chloro-N4-(2-(isopropylsulfonyl)phenyl)-N2-(2-D3-methoxy-4-(4-thiomorpholinopiperidin-1-yl)phenyl)pyrimidin-2,4-diamine]
[5]
  IC50: 1 to 10 nM

## COc1cc(N2CCC(N3CCC(N)CC3)CC2)ccc1Nc1ncc(Cl)c(Nc2ccccc2S(=O)(=O)C(C)C)n1 [Compound I-34, N2-(4-(4-amino-[1,4′-bipyridin]-1′-yl)-2-D3-methoxyphenyl)-5-chloro-N4-(2-(isopropylsulfonyl)phenyl)pyrimidin-2,4-diamine]
[5]
  IC50: 1 to 10 nM

## COc1cc(N2CCC(N3CCOCC3)CC2)ccc1Nc1ncc(Cl)c(Nc2ccccc2S(=O)(=O)C(C)C)n1 [Compound I-35, 5-chloro-N4-(2-(isopropylsulfonyl)phenyl)-N2-(2-D3-methoxy-4-(4-morpholinopiperidin-1-yl)phenyl)pyrimidin-2,4-diamine]
[5]
  IC50: 1 to 10 nM

## COc1cc(N2CCC(N(C)C)CC2)ccc1Nc1ncc(Cl)c(Nc2ccccc2P(C)(C)=O)n1 [Compound I-37, (2-((5-chloro-2-((4-(4-(dimethylamino)piperidin-1-yl)-2-D3-methoxyphenyl)amino)pyrimidin-4-yl)amino)phenyl)dimethylphosphorus oxide]
[5]
  IC50: 1 to 10 nM

## COc1cc(C2CCNCC2)c(C)cc1Nc1ncc(Cl)c(Nc2ccccc2P(C)(C)=O)n1 [Compound I-38, 5-chloro-N4-(2-(dimethylphosphoryl)phenyl)-N2-(2-D3-methoxy-5-methyl-4-(piperidin-4-yl)phenyl)pyrimidin-2,4-diamine]
[5]
  IC50: 1 to 10 nM

## COc1cc(C2CCNCC2)ccc1Nc1ncnc(Nc2ccccc2S(=O)(=O)C(C)C)n1 [Compound I-39, N2-(2-(isopropylsulfonyl)phenyl)-N4-(2-D3-methoxy-4-(4-piperidin-4-yl)phenyl)-1,3,5-triazin-2,4-diamine]
[5]
  IC50: 1 to 10 nM

## COc1cc(C2CCNCC2)c(C)cc1Nc1ncnc(Nc2ccccc2S(=O)(=O)C(C)C)n1 [Compound I-40, N2-(2-(isopropylsulfonyl)phenyl)-N4-(2-D3-methoxy-5-methyl-4-(piperidin-4-yl)phenyl)-1,3,5-triazin-2,4-diamine]
[5]
  IC50: 1 to 10 nM

## COc1cc(N2CCNCC2)ccc1Nc1ncnc(Nc2ccccc2S(=O)(=O)C(C)C)n1 [Compound I-41, N2-(2-D3-methoxy-4-(piperazin-1-yl)phenyl)-N4-(2-(isopropylsulfonyl)phenyl)-1,3,5-triazin-2,4-diamine]
[5]
  IC50: 1 to 10 nM

## COc1cc(N2CCNCC2)c(C)cc1Nc1ncnc(Nc2ccccc2S(=O)(=O)C(C)C)n1 [Compound I-42, N2-(2-D3-methoxy-4-(piperazin-1-yl)-5-methyl-phenyl)-N4-(2-(isopropylsulfonyl)phenyl)-1,3,5-triazin-2,4-diamine]
[5]
  IC50: 1 to 10 nM

## COc1cc(N2CCC(N3CCN(C)CC3)CC2)ccc1Nc1ncnc(Nc2ccccc2S(=O)(=O)C(C)C)n1 [Compound I-43, N2-(2-(isopropylsulfonyl)phenyl)-N4-(2-D3-methoxy-4-(4-(4-methylpiperazin-1-yl)piperidin-1-yl)phenyl)-1,3,5-triazin-2,4-diamine]
[5]
  IC50: 1 to 10 nM
